According to PubChem BioAssay (NCI):
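Method: 48-hour compound exposure of cells in 96-well plates, five concentrations, linear interpolation of endpoints. At the TGI there is no net growth.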 Where a SMILES comes first, the peptide text is derived from it. [ ]: non-standard residue; d: D form. The star is where a group is joined. ξ: configuration not given here. NMeY = CN[C@@H](Cc1ccc(O)cc1)C(=O)O; Cbz = O=C(OCc1ccccc1)*; ξA = CC(N)C(=O)O

Assays:
Test in all cases: growth of human tumour cells (NCI), 48 h
CAKI-1 renal = tested on: CAKI-1 renal
DU-145 prostate = tested on: DU-145 prostate
OVCAR-4 ovarian = tested on: OVCAR-4 ovarian
SF-268 CNS = tested on: SF-268 CNS
UACC-257 melanoma = tested on: UACC-257 melanoma
HL-60(TB) leukemia = tested on: HL-60(TB) leukemia

| Compound | TGI (CAKI-1 renal) | TGI (DU-145 prostate) | TGI (OVCAR-4 ovarian) | TGI (SF-268 CNS) | TGI (UACC-257 melanoma) | TGI (HL-60(TB) leukemia) |
| --- | --- | --- | --- | --- | --- | --- |
| CC(=Nc1ccc(Cl)cc1)c1ccncc1 | > 100 µM | > 100 µM | > 100 µM | > 100 µM | > 100 µM | – |
| CC/C(Cl)=N\OC(=O)Nc1ccc(F)c(Cl)c1 | 9.55 µM | 34.2 µM | 31.1 µM | 43.4 µM | 31.9 µM | 4.33 µM |
| COc1ccc(C[C@@H](C(=O)N[C@@H](C)C(N)=O)N(C)C(=O)[C@@H]2CCCN2C(=O)[C@H](CC(C)C)NC(=O)C(C)NC(=O)OCc2ccccc2)cc1 (some centres not stated) (Cbz-[ξA]LP[NMeY](Me)A-NH2) | > 100 µM | > 100 µM | > 100 µM | > 100 µM | – | > 100 µM |
| COc1ccc(/C(C)=C2\CCCN(Cc3ccccc3)C2)cc1 | 58.4 µM | > 100 µM | > 100 µM | 40.6 µM | 86.4 µM | 47.5 µM |
| CNC(=O)O/N=C1\N(C)CN(c2ccccc2)C12CCN(CCCC(=O)c1ccc(F)cc1)CC2 | > 100 µM | > 100 µM | > 100 µM | > 100 µM | 35.4 µM | > 100 µM |
| Cc1cc(C)c(NS(=O)c2ccc(Cl)cc2)c(C)c1 (configuration not stated) | – | > 100 µM | – | > 100 µM | > 100 µM | > 100 µM |
| Cc1nc(C)c(N2CCN(Cc3ccccc3)CC2)c(=O)[nH]1 | – | > 100 µM | > 100 µM | > 100 µM | > 100 µM | > 100 µM |
| CCOC(=O)/C(=C\c1c[nH]c2ccccc12)P(=O)(OCC)OCC | > 100 µM | > 100 µM | 89.4 µM | > 100 µM | > 100 µM | 62 µM |
| Cc1c2c(n3c(nc4ccccc43)c1C#N)N(c1ccc(F)cc1)CC2 | > 100 µM | > 100 µM | > 100 µM | > 100 µM | > 100 µM | > 100 µM |
| COC(C)=NCCC1=CCCCC1 | > 100 µM | > 100 µM | > 100 µM | > 100 µM | > 100 µM | – |
| COc1cccc(CCn2c(N)c(-c3cc(Cl)cc(Cl)c3)c3ccc([N+](=O)[O-])cc3c2=O)c1 | 41.7 µM | > 25.3 µM | > 100 µM | > 100 µM | 24.4 µM | 5.37 µM |
| N#CCCC1(CCC#N)S(=O)(=O)OCCOS1(=O)=O | > 100 µM | > 100 µM | > 100 µM | > 100 µM | > 100 µM | 69.4 µM |
| CCC1(c2ccc(OC)c(OC)c2)CCN(S(=O)(=O)c2ccc(C)cc2)C1 (configuration not stated) | > 100 µM | > 100 µM | > 100 µM | > 100 µM | > 100 µM | – |
| COC1(OC)CCN(Cc2ccccc2)C1=O | 13 µM | 29.2 µM | 30.6 µM | > 52.8 µM | 28.6 µM | 4.15 µM |
| COc1ccc(C[C@H]2COC(=O)[C@@H]2Cc2ccc(Br)cc2)cc1OC | > 84 µM | > 84.3 µM | > 100 µM | > 31.6 µM | 74.6 µM | > 61.6 µM |
| Cc1n[nH]c(=O)n1/N=C/c1ccco1 | > 100 µM | > 100 µM | > 100 µM | > 100 µM | > 100 µM | – |
| O=[N+]([O-])C(C(Cl)=C(Cl)Cl)=C(N1CCCCC1)N1CCCCC1 | > 100 µM | > 100 µM | > 100 µM | > 100 µM | > 100 µM | > 100 µM |
| NC(=O)C1=C(O)[C@@]2(O)C(=O)C3=C(O)c4c(O)cccc4CC3C[C@H]2CC1=O (some centres not stated) | 26.7 µM | 18.6 µM | > 85.1 µM | 17.8 µM | 28.6 µM | 14.9 µM |
| CC1=CC2(C)C=C[C@@H]1C(=O)[C@@]1(C)CC[C@@](O)(C(C)C)[C@H]1CC2 | – | 72.1 µM | 38.2 µM | 57.1 µM | 34.1 µM | – |
| Nc1ncnc2c1ccn2CC#CCO | > 100 µM | > 100 µM | > 100 µM | > 100 µM | > 100 µM | > 100 µM |
| CC(C)CCNC(=O)c1ccc(CNC(=O)/C=C/c2ccc3ccccc3c2)cc1 | > 100 µM | > 100 µM | > 100 µM | > 100 µM | > 100 µM | > 100 µM |
| COc1ccc2nc3ccc(OC)cc3c(S(=O)Cc3ccccc3)c2c1 (configuration not stated) | 25.6 µM | 5.85 µM | 30.2 µM | 40.2 µM | 20.9 µM | 35.9 µM |
| COc1cc(-c2nc(N)c(C#N)c3c2CCS(=O)(=O)c2ccc(C)cc2-3)cc(OC)c1OC | > 100 µM | > 100 µM | > 100 µM | > 100 µM | > 100 µM | > 100 µM |
| Cc1cc2c(cc1Cl)SC(NNCCO)=NS2(=O)=O | > 100 µM | > 100 µM | > 100 µM | > 100 µM | > 100 µM | > 100 µM |
| O=C(Nn1c(-c2ccccc2)nc2ccccc2c1=O)c1cccc([N+](=O)[O-])c1 | – | > 100 µM | > 100 µM | > 100 µM | > 100 µM | > 100 µM |
| CCCCCN1C(=O)C(Cc2ccccc2)N=C(c2ccc(O)cc2)c2cc(Cl)ccc21 (configuration not stated) | 35.1 µM | 30.9 µM | 22.1 µM | 25.3 µM | 23.7 µM | > 100 µM |
| CC(C)(C)OC(=O)N(O)CCCn1cnc2c(NC3CC3)ncnc21 | > 100 µM | > 100 µM | > 100 µM | > 100 µM | > 100 µM | – |
| COC(=O)c1cc(/C=C/C(=O)Cc2ccccc2)cn1S(=O)(=O)c1ccccc1 | > 100 µM | > 100 µM | > 100 µM | > 100 µM | > 100 µM | > 100 µM |
| C=CC(C)(C)NC(C(=O)N1CCC[C@H]1c1nc(-c2nc(C(=O)OCC=C(C)C)c(C)o2)c(C)o1)C(C)C (some centres not stated) | 99.8 µM | > 100 µM | > 100 µM | > 100 µM | > 100 µM | 71.6 µM |
| Cn1c2ncccc2n2c(=O)cc(O)cc12 | > 100 µM | > 100 µM | > 100 µM | > 100 µM | > 100 µM | – |
